# Experimental data reported in patent US12077586B2, “Bispecific antibodies for use in the treatment of hematological malignancies” (LAVA THERAPEUTICS N.V., priority 2018, dated 2024).
# B1: 5C8: Vγ9Vδ2-specific VHH binding to the Vδ2 chain of the TCR, SEQ ID NO: 149 (protein)
# VHH: EVQLVESGGGLVQAGGSLRLSCAASGRPFSNYAMGWFRQAPGKEREFVAAISWSGGSTSYADSVKGRFTISRDNAKNTVYLQMNSPKPEDTAIYYCAAQFSGADYGFGRLGIRGYEYDYWGQGTQVTVSS
# modifications: antibody sequence
# Legend:
# healthy B cells = experiment: Mixed coculture cytotoxicity (Vγ9Vδ2-T cell: B cell: CLL cell 1:1:1), healthy B cells; type: cell-based, human; settings: 6 hours
# Method: (§1) (A) Specific lysis of Jeko-1 cells after pretreatment with mevastatin or pamidronate. […] (B) CD1d expression on B cells from healthy donor PBMCs. (C) Specific lysis of healthy B cells and CLL cells after pretreatment with ABP. Healthy B cells (isolated from healthy donor PBMCs, CFSE-labeled) and CLL cells (isolated from CLL PBMCs, CTV-labeled) were mixed in 1:1 ratio and pretreated with 50 μM pamidronate or medium control for 2 hours. […] (D) Specific lysis of Jeko-1 cells after blockade of CD1d or CD277. Jeko-1 cells were incubated with an anti-CD1d antibody (5 μg/mL), anti-CD277 antibody (10 μg/mL), anti-CD1d and anti-CD277 antibodies, or medium control for 10 minutes. […] Specific lysis is calculated by correcting for background cell death in condition without Vγ9Vδ2-T cells. Data represent mean and SD. *P<0.05, **P<0.01, ***P<0.001. (A: two-way ANOVA followed by Dunnett's post hoc test comparing control vs each pretreatment; C: two-way ANOVA followed by Sidak's post hoc test comparing untreated vs ABP pre-treated D: one-way ANOVA followed by Dunnett's post hoc test compared to medium control).
# (§2) If indicated, target cells were pretreated with 25 μM mevastatin (M2537, Sigma-Aldrich), 50 μM aminobisphosphonates (pamidronate, #12J08RD, TEVA Pharmachemie, Haarlem, the Netherlands) or medium control for 2 hours.
# (§3) Healthy B cells express low levels of CD1d (FIG. 12B). […]
# CLL cells = experiment: Mixed coculture cytotoxicity (Vγ9Vδ2-T cell: B cell: CLL cell 1:1:1), CLL cells; type: cell-based, human; settings: 6 hours
# Method: as §1, §2, §3
# autologous CLL cells = experiment: Cytotoxicity assay with patient-derived Vγ9Vδ2-T cells against autologous CLL cells; type: cell-based, human; settings: 10 nM; CD3:PBMC 5:1 or 20:1
# From the text: (§4) (A-C) Activation of and cytokine production and degranulation by patient-derived Vγ9Vδ2-T cells. […] (D) Lysis of primary CLL cells by autologous Vγ9Vδ2-T cells. […] Live CLL cells were quantified by flow cytometry using counting beads (n=5). (E) Expansion of patient-derived Vγ9Vδ2-T cells. […] Percentage Vγ9Vδ2-T cells after 1 week (n=8). Data are presented as mean and SD. *P<0.05, **P<0.01, ***P<0.001. (A-D: one-way ANOVA followed by Dunnett's post hoc test compared to medium control; E: paired t-test).
# For cytotoxicity assays performed with patient-derived Vγ9Vδ2-T cells, CD3^+ cells were enriched from patient PBMC by magnetic bead selection (130-050-101, Miltenyi Biotec; ≥90% purity). […] Viable cells were then quantified by fluorescence-labeled antibodies and viability dyes in combination with counting beads (01-1234-42, Thermo Fisher Scientific).
# [1] = system: wildtype CD1d-negative MM.1s cells; experiment: Cytotoxicity assay with Vγ9Vδ2-T cell lines, wildtype MM.1s; type: cell-based, human; settings: overnight coculture with Vγ9Vδ2-T cells
# Method: (§5) (A) Specific lysis of Jeko-1 cell line (n=3). (B) CD1d expression on WT or CD1d-transfected MM.1s cell line (blank histogram: CD1d-stained, grey filled histogram: fluorescence minus one control). (C) Specific lysis of WT or CD1d-transfected MM.1s cell line (n=4). (D) Specific lysis of primary CLL cells with negative, low or high CD1d expression (n=4 per group). Specific lysis is calculated by correcting for background cell death in condition without Vγ9Vδ2-T cells. Data represent mean and SD. *P<0.05, **P<0.01, ****P<0.0001. (A: one-way ANOVA followed by Dunnett's post hoc test compared to untreated condition, C: two-way ANOVA followed by Sidak's post hoc test comparing WT vs CD1d for each concentration, D: two-way ANOVA followed by Tukey's post hoc test comparing each CD1d group for each concentration).
# (§6) Target cells were then cocultured overnight with Vγ9Vδ2-T cell lines in a 1:1 ratio unless otherwise indicated. Viability was measured using Mitotracker Orange (25-minute incubation at 37° C., M7510) and To-pro-3 (10-minute incubation at room temperature; T3605, both Thermo Fisher Scientific).
# [2] = system: CLL patient-derived Vγ9Vδ2-T cells; experiment: Proliferation assay of CLL patient-derived Vγ9Vδ2-T cells; type: cell-based, human; settings: 1 week
# From the text: as §4
# For proliferation assays, PBMCs from CL patients were enriched for T cells by depletion of CD19^+ CLL cells. After attachment of irradiated (30Gy) […] fibroblasts to culture plates, T cell enriched PBMC (≤10% CD19^+) and purified CD19^+ (≥90% CD19^+) PBMC fractions were added in a 2:1 (CD19:CD19^+) ratio.
# Vγ9Vδ2-T cells [3] = experiment: Cytokine and degranulation assay, Vγ9Vδ2-T cells cocultured with Jeko-1 cells; type: cell-based, human; settings: bispecific antibody alone, without target cells
# [4] = system: CD1d-transfected MM.1s cells; experiment: VHH binding to CD1d-transfected MM.1s cells (flow cytometry); parameters: species or system human; settings: read-out: apparent Kd
# primary CLL cells = experiment: Cytotoxicity assay with Vγ9Vδ2-T cell lines, primary CLL cells; type: cell-based
# Method: as §5, §6
# (§7) If indicated, cells were cultured with the indicated concentrations of all-trans retinoic acid (ATRA; R2625, Sigma-Aldrich) for 48 hours unless otherwise indicated. ATRA was washed away prior to cytotoxicity assays.
# Jeko-1 cells [5] = experiment: Cytotoxicity assay with Vγ9Vδ2-T cell lines, Jeko-1 target cells; type: cell-based, human
# Method: as §6, §2, §7
# If indicated, target cells were pre-incubated with 5 μg/mL anti-CD1d mAb (clone 51.1, 350304, Biolegend, San Diego, CA, USA) and/or 10 μg/mL anti-CD277 mAb (clone 103.2, Creative Biolabs, Shirley, NY, USA) for 10 minutes.
# [6] = system: CD1d-transfected MM.1s cells; experiment: Cytotoxicity assay with Vγ9Vδ2-T cell lines, CD1d-transfected MM.1s; type: cell-based, human; settings: overnight coculture with Vγ9Vδ2-T cells
# Method: as §5, §6
# [7] = system: CLL patient-derived Vγ9Vδ2-T cells; experiment: Activation, cytokine and degranulation assay with autologous CLL patient-derived Vγ9Vδ2-T cells; type: cell-based, human
# From the text: as §4
# [8] = system: CD1d expression on Jeko-1 cells; experiment: CD1d expression on Jeko-1 cells after ATRA treatment; type: cell-based, human; settings: 48 hours
# Method: (§8) (A) CD1d expression on Jeko-1 cells after 48 hours of ATRA treatment. (B) Time-curve of CD1d expression upon ATRA treatment (n=3). (C) Viability of Jeko-1 cells after 48 hours of treatment with 100 nM ATRA (n=4). (D) Lysis of Jeko-1 cells after pretreatment with ATRA. […] (E) CD1d expression on primary CLL cells after 48 hours of different concentrations of ATRA or medium control treatment (n=17). (F) Lysis of CLL cells after pretreatment with ATRA. […] Specific lysis is calculated by correcting for background cell death in condition without Vγ9Vδ2-T cells. Data represent mean and SD. *P<0.05, ***P<0.001, ****P<0.0001. (C: paired t-test; D, F: two-way ANOVA followed by Sidak's post hoc test comparing control vs ATRA-treated for each concentration; E: Friedman test followed by Dunnett's post hoc test compared to medium control).
# (§9) Cells were stained with antibodies and viability dyes (Table 4) and measured on an LSR Fortessa or FACS Canto cytometer (BD Biosciences, Franklin Lakes, NJ, USA). Samples were analyzed with Flowjo MacV10. Cytofix/Cytoperm reagent was used for detection of intracellular cytokines (BD Biosciences). Relative CD1d expression is defined as geometric MFI (CD1d stained)—geometric MFI (fluorescence minus one).
# If indicated, cells were cultured with the indicated concentrations of all-trans retinoic acid (ATRA; R2625, Sigma-Aldrich) for 48 hours unless otherwise indicated. […]
# Jeko-1 cells [9] = experiment: Viability of Jeko-1 cells after ATRA treatment; type: cell-based, human; settings: 100 nM ATRA, 48 hours
# Method: as §8, §7
# [10] = system: CD1d expression on primary CLL cells; experiment: CD1d expression on primary CLL cells after ATRA treatment; type: cell-based, human; settings: for Increase of CD1d levels: primary CLL cells, 48 hours
# Method: as §8, §9, §7
# Vγ9Vδ2-T cells [11] = settings: previous work; cited from earlier work
# complete Vγ9Vδ2 TCR = target: T1, complete Vγ9Vδ2 TCR (Homo sapiens, UniProt A0JD36+Q99603, T7A); settings: Mean Fluorescence Index class; cited from earlier work
# T1 construct: host or cells: γδ T-cells expressing the complete Vγ9Vδ2 TCR
# Vδ2 chain = target: T2, Vδ2 chain (Homo sapiens, UniProt A0JD36); settings: Mean Fluorescence Index class; γδ T-cells expressing Vδ2 chain paired with non Vγ9 chain; cited from earlier work
# T2 construct: host or cells: γδ T-cells expressing a Vδ2 chain paired with a non-Vγ9 chain
# [12] = system: γδ T-cells not expressing any of the Vγ9Vδ2 TCR chains; settings: Mean Fluorescence Index class; cells not expressing any Vγ9Vδ2 TCR chain; cited from earlier work
# Vγ9 chain = target: T3, Vγ9 chain (Homo sapiens, UniProt Q99603, T7A); settings: Mean Fluorescence Index class; γδ T-cells expressing Vγ9 chain paired with non Vδ2 chain; cited from earlier work
# T3 construct: host or cells: γδ T-cells expressing a Vγ9 chain paired with a non-Vδ2 chain
# [13] = 10 pM 1D7-5C8, with ABP (50 μM pamidronate pretreatment)
# [14] = 100 nM, overnight coculture with Vγ9Vδ2-T cells 1:1
# T3 sequence (Q99603 with tags, fused parts or gaps T7A limits assumed): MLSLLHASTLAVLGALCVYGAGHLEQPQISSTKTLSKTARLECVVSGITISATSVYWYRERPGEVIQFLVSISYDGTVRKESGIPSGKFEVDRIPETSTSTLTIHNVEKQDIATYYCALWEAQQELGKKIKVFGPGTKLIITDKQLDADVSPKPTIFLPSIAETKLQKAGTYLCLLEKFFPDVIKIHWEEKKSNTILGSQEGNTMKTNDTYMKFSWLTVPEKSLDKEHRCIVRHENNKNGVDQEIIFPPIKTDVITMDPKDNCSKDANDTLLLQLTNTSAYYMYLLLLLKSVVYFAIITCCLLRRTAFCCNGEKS
# T3 sequence (P07766 23-207 partner): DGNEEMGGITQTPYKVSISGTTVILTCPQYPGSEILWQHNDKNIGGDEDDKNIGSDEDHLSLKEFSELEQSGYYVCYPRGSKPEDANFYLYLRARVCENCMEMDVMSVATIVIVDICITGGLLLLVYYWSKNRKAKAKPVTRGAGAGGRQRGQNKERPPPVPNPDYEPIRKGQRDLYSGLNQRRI
# T3 sequence (P09693 23-182 partner): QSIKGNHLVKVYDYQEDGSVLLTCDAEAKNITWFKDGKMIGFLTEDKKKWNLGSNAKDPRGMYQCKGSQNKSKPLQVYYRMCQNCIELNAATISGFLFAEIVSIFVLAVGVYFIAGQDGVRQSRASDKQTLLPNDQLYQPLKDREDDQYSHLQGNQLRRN
# T3 sequence (P04234 22-171 partner): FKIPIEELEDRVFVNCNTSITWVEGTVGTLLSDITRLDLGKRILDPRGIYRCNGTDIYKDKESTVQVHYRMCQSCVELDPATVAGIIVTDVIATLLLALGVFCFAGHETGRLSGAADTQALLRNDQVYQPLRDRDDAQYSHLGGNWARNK
# T3 sequence (P20963 22-164 partner): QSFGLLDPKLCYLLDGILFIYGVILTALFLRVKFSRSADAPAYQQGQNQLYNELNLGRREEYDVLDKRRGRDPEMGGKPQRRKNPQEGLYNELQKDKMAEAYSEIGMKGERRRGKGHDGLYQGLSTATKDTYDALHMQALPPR
# T1 sequence (Q99603 with tags, fused parts or gaps T7A limits assumed): as the sequence (Q99603 with tags, fused parts or gaps T7A limits assumed) above
# T1 sequence (A0JD36 with tags, fused parts or gaps, stated change not applied): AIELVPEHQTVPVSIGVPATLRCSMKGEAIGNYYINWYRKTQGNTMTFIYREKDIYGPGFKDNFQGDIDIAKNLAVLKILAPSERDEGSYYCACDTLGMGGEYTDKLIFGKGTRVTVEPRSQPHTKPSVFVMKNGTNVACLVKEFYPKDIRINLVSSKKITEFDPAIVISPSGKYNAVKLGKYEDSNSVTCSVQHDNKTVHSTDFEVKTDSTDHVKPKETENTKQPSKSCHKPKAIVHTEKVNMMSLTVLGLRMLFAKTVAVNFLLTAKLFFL
# T1 sequence (P07766 23-207 partner): as the sequence (P07766 23-207 partner) above
# T1 sequence (P09693 23-182 partner): as the sequence (P09693 23-182 partner) above
# T1 sequence (P04234 22-171 partner): as the sequence (P04234 22-171 partner) above
# T1 sequence (P20963 22-164 partner): as the sequence (P20963 22-164 partner) above
# T2 sequence (A0JD36 with tags, fused parts or gaps): as the sequence (A0JD36 with tags, fused parts or gaps, stated change not applied) above
# T2 sequence (P07766 23-207 partner): as the sequence (P07766 23-207 partner) above
# T2 sequence (P09693 23-182 partner): as the sequence (P09693 23-182 partner) above
# T2 sequence (P04234 22-171 partner): as the sequence (P04234 22-171 partner) above
# T2 sequence (P20963 22-164 partner): as the sequence (P20963 22-164 partner) above
molecule,measurement,setting,value
"1D7-5C8: CD1d-Vδ2 bispecific VHH: 1D7 (N-terminal) joined to 5C8 (C-terminal) with Gly4Ser-linker, SEQ ID NO: 165",Lysis of healthy B cells,"healthy B cells; 10 pM 1D7-5C8, no ABP",4.8%±0.6
same,Lysis of healthy B cells,healthy B cells; [13],5.4%±4.5
same,Lysis of CLL cells,"CLL cells; 10 pM 1D7-5C8, no ABP",19.6%±4.8
same,Lysis of CLL cells,CLL cells; [13],25.1%±5.2
same,Lysis of autologous CLL cells by patient-derived Vγ9Vδ2-T cells,autologous CLL cells,enables autologous tumor lysis at relatively low E:T ratios
same,Lysis of wildtype MM.1s cells,[1],had no effect on lysis of the wildtype cells
same,Percentage of Vγ9Vδ2-T cells within the T cell fraction,"[2]; IL-2 50 IU/mL and 50 nM 1D7-5C8, baseline 1.2%",5.6%±4.7
same,Percentage of Vγ9Vδ2-T cells with versus without antibody,"[2]; IL-2 50 IU/mL, 50 nM 1D7-5C8",3.1 fold
same,IFN-γ production and degranulation of Vγ9Vδ2-T cells,Vγ9Vδ2-T cells [3],did not produce IFN-γ and hardly degranulated
same,Kd,[4],0.4 nM
same,Lysis of CD1d high CLL cells,primary CLL cells; [14],74.5%±19.1
same,Lysis of CD1d low CLL cells,primary CLL cells; [14],49.3%±6.6
same,Lysis of Jeko-1 cells,Jeko-1 cells [5]; 10 pM 1D7-5C8 with CD1d-blocking antibody (5 μg/mL),13.7%±1.0
same,Lysis of Jeko-1 cells,Jeko-1 cells [5]; 10 pM 1D7-5C8 with CD1d and CD277 simultaneously blocked,9.4%±0.8
same,Lysis of Jeko-1 cells,"Jeko-1 cells [5]; 10 nM, overnight coculture with Vγ9Vδ2-T cells 1:1",75.2%±21.0
same,Decline of 1D7-5C8-induced lysis,Jeko-1 cells [5]; CD1d and CD277 simultaneously blocked,20.2%
same,Target cell lysis,Jeko-1 cells [5]; in the absence of Vγ9Vδ2-T cells,did not induce target cell lysis
same,Decrease of 1D7-5C8-induced lysis,"Jeko-1 cells [5]; with CD1d-blocking antibody, on average",15.9%
same,Lysis of CD1d+ MM.1s cells,[6],clearly increased lysis
same,Upregulation of activation marker CD25 on patient Vγ9Vδ2-T cells,"[7]; overnight culture of CLL PBMC, 1D7-5C8 50 nM",20.8 fold
same,Cytokine production by patient-derived Vγ9Vδ2-T cells,"[7]; overnight, 50 nM",induced production of IFN-γ and TNF-α
same,Degranulation of patient-derived Vγ9Vδ2-T cells,"[7]; overnight, 50 nM",triggered Vγ9Vδ2-T cell degranulation
"CC1=C(/C=C/C(C)=C/C=C/C(C)=C/C(=O)O)C(C)(C)CCC1 [ATRA, all-trans retinoic acid]",ATRA concentration at which upregulation of CD1d expression was detectable,[8],10 pM
same,Direct induction of cell death,Jeko-1 cells [9],did not induce cell death directly
same,Sensitivity of ATRA-pretreated primary CLL cells to 1D7-5C8-mediated cell death,"primary CLL cells; 100 nM ATRA 48 hours, then Vγ9Vδ2-T cells 1:1 plus 1D7-5C8",did sensitize primary CLL cells to bispecific antibody 1D7-5C8-mediated cell death
same,Sensitivity of ATRA-pretreated Jeko-1 cells to 1D7-5C8-induced cell death,"Jeko-1 cells [5]; 100 nM ATRA 48 hours, then Vγ9Vδ2-T cells 1:2 plus 1D7-5C8",more sensitive to bispecific antibody 1D7-5C8-induced cell death than control Jeko-1 cells
same,CD1d relative MFI,[10]; primary CLL cells after 100 nM ATRA,504.6±366.0
same,Increase of CD1d levels,[10]; 1 nM ATRA,2.6 fold
same,Increase of CD1d levels,"[10]; 100 nM ATRA, on average",3.7 fold
B1,Inhibition of phosphoantigen-CD277 mediated Vγ9Vδ2-T cell activation,Vγ9Vδ2-T cells [11],not effective in inhibiting phosphoantigen-CD277 mediated Vγ9Vδ2-T cell activation
same,"Binding, Vγ9Vδ2+",complete Vγ9Vδ2 TCR,++ (“++” indicates an MFI above 20)
same,"Binding, Vδ2+",Vδ2 chain,++ (“++” indicates an MFI above 20)
same,"Binding, Vγ9Vδ2−",[12],− (“−” indicates a Mean Fluorescence Index (MFI) below 1.5)
same,"Binding, Vγ9+",Vγ9 chain,− (“−” indicates a Mean Fluorescence Index (MFI) below 1.5)
